Measurements reported in publication PMC5034043 (The Journal of Biological Chemistry, 2016).
Read-outs that look alike come from different tables or passages of the source.

System: T1, synaptosomal proteome
T1 construct: from tissue; host or cells: brain synaptosomes of male C57/B6 mice
Assay type: binding, mouse
Method: Synaptosomes were resuspended to 1 mg of protein/ml in HEPES buffer medium (in mM: 140 NaCl, 5 KCl, 5 NaHCO3, 1.2 NaH2PO4, 1 MgCl2, 10 glucose, and 10 HEPES (pH 7.4)). […] The samples were allowed to equilibrate for 5 min before being transferred to a parafilm-sealed 1-mm path length quartz cuvette. The sample was then irradiated for 20 min at a peak bandwidth of 350 nm (Rayonet RPR-3500 lamp) ∼6 cm from the light source. Non-irradiated samples were left in the dark at ambient temperature (22–25 °C) for 20 min. All remaining procedures were conducted with restricted light exposure.
To 750 μg of photolabeled or control synaptosome samples, 40 μl of 10% SDS and 2 μl of 5 mM DTT in water were added. Samples were then vortexed, heated for 10 min at 65 °C, and then briefly cooled. Final concentrations of 150 μM azide-biotin (Click Chemistry Tools), 2 mM tris(3-hydroxypropyltriazolylmethyl)amine (Sigma), 1 mM ascorbic acid (Sigma), and 1 mM CuSO4·5H2O (Sigma) were added to each sample and vortexed vigorously. The samples were left in the dark at ambient temperature (22–25 °C) for 1 h with mild agitation. Directly to each sample 4× volume chilled methanol, 1.5× chilled chloroform, and 3× chilled double distilled H2O were added. Samples were vortexed vigorously and centrifuged at 1,400 × g for 30 min at 4 °C. Both liquid layers were carefully removed, and the protein pellet was washed with 2 ml of 1:1 (v/v) chilled methanol/chloroform. Samples were centrifuged at 3,500 × g for 30 min at 4 °C. Protein pellets were briefly air-dried before further processing.
750 μg of biotin-conjugated protein sample was resuspended in 500 μl of 25 mM NH4HCO3 and 6 M urea in water. Next, 150 μl of 5% Triton X-100 in water, 50 μl of 10% SDS in water, and 1.5 μl of 0.5 M DTT were added. The samples were heated for 15 min at 65 °C. After briefly cooling, 14 μl of 0.5 M iodoacetamide in water was added, and the sample was left in the dark for 45 min. […] The supernatant was diluted to 4 ml with PBS, and 2 ml of PBS containing 100 μl of 50% streptavidin-agarose resin (Thermo Scientific) was added. Biotinylated proteins within the sample were captured over resin overnight at 4 °C with mild agitation. The resin was first washed with 6 ml of 1% SDS in PBS, and then 7 ml of 0.1 M urea in PBS followed by 10 ml of PBS. The resin underwent a final wash with 0.9 ml of 50 mM Tris-HCl and 1 mM CaCl2 in water (pH 8.0) and then resuspended in 200 μl of 50 mM Tris-HCl, 1 mM CaCl2 in water (pH 8.0), and 2 μg of porcine sequencing grade trypsin (Promega). Samples were digested overnight at 37 °C. Samples were then centrifuged at 2,000 × g for 4 min, and digest supernatant was decanted. Beads were washed in 100 μl of PBS centrifuged at 5,200 × g for 5 min, and the wash was combined with the digest supernatant. To the combined sample, trifluoroacetic acid (TFA) was added to 0.4% (v/v) or until pH <2. The sample was desalted with Oasis C18 10-mg columns (Waters) as described previously ([66]). The eluted sample was dried by speed vac and resuspended in 0.1 M HEPES buffer (pH 8.5). […] Appropriate corresponding TMTsixplex^TM-labeled samples were pooled and dried by speed vac. The combined samples were resuspended in 0.5% acetic acid in water and pH-corrected with acetic acid until pH was <2. 40 μg of protein was desalted with C18 stage tips prepared in-house and dried by speed vac.
Samples were resuspended in 10 mM KH2PO4 (pH 2.6), 30% acetonitrile (v/v) in water, and fractionated by off-line strong cation exchange chromatography prior to mass spectrometry (MS) analysis similar to as reported previously ([66]). The full synaptosome proteome control was prepared similarly without TMTsixplex^TM labeling.
All TMT samples were analyzed with three-stage mass spectrometry (MS3) TMTsixplex^TM quantification workflow as described previously ([34]).

[1] = protein A2AGI3 Neuroligin-3 (Nlgn3)
[2] = protein A2AWI7 Endophilin-B2 (Sh3glb2)
[3] = protein D3Z5T2 Armadillo repeat-containing protein 10 (Armc10)
[4] = protein E9Q3V6 Septin-2 (Sept2)
[5] = protein F7C846 Metaxin-1 (Mtx1)
[6] = protein F8WGD9 1-acyl-sn-glycerol-3-phosphate acyltransferase epsilon (Agpat5)
[7] = protein G3UYZ1 Immunoglobulin superfamily member 8 (Igsf8)
[8] = protein G5E829 Plasma membrane calcium-transporting ATPase 1 (Atp2b1)
[9] = protein O09111 NADH dehydrogenase [ubiquinone] 1 beta subcomplex subunit 11, mitochondrial (Ndufb11)
[10] = protein O35114 Lysosome membrane protein 2 (Scarb2)
[11] = protein O35526 Syntaxin-1A (Stx1a)
[12] = protein O35874 Neutral amino acid transporter A (Slc1a4)

With `C#CCOCc1ccc(C2(C(F)(F)F)N=N2)cc1O` [AziPm-click (1), 2-((prop-2-yn-1-yloxy)methyl)-5-(3-(trifluoromethyl)-3H-diazirin-3-yl)phenol] the “Log2( Mean 'UV/ No UV')” value (B1AU25 Aifm1) was 4.01, the “TMT Ratio Mean 'UV/ No UV'” value (B1AU25 Aifm1) was 16.13 and the “Log2( Mean 'UV/ No UV')” value (O35633-2 Slc32a1) was 4.34. For the same molecule, the “Log2( Mean 'UV/ No UV')” value (O35678 Mgll) was 4.63, the “TMT Ratio Mean 'UV/ No UV'” value (O35678 Mgll) was 24.71 and the “Log2( Mean 'UV/ No UV')” value (P07724 Alb) was 4.39. The “TMT Ratio Mean 'UV/ No UV'” value (P07724 Alb) was 20.95, the “Log2( Mean 'UV/ No UV')” value (P08226 Apoe) was 3.80 and the “TMT Ratio Mean 'UV/ No UV'” value (P08226 Apoe) was 13.94. For the same molecule, the “Log2( Mean 'UV/ No UV')” value (P17665 Cox7c) was 4.31, the “TMT Ratio Mean 'UV/ No UV'” value (P17665 Cox7c) was 19.82 and the “Log2( Mean 'UV/ No UV')” value (P19157 Gstp1) was 3.61. The “TMT Ratio Mean 'UV/ No UV'” value (P19157 Gstp1) was 12.21, the “Log2( Mean 'UV/ No UV')” value (P23242 Gja1) was 3.58 and the “TMT Ratio Mean 'UV/ No UV'” value (P23242 Gja1) was 11.95. The “Log2( Mean 'UV/ No UV')” value (P31648 Slc6a1) was 4.60, the “TMT Ratio Mean 'UV/ No UV'” value (P31648 Slc6a1) was 24.21 and the “Log2( Mean 'UV/ No UV')” value (P35279 Rab6a) was 3.67. For the same molecule, the “TMT Ratio Mean 'UV/ No UV'” value (P35279 Rab6a) was 12.71, the “Log2( Mean 'UV/ No UV')” value (P40237 Cd82) was 3.95 and the “TMT Ratio Mean 'UV/ No UV'” value (P40237 Cd82) was 15.49. For the same molecule, the “Log2( Mean 'UV/ No UV')” value (P42125 Eci1) was 4.01, the “TMT Ratio Mean 'UV/ No UV'” value (P42125 Eci1) was 16.13 and the “Log2( Mean 'UV/ No UV')” value (P51150 Rab7a) was 3.54. The “TMT Ratio Mean 'UV/ No UV'” value (P51150 Rab7a) was 11.65, the “Log2( Mean 'UV/ No UV')” value (P60879-2 Snap25) was 4.57 and the “Log2( Mean 'UV/ No UV')” value (P61294 Rab6b) was 3.78. The “TMT Ratio Mean 'UV/ No UV'” value (P61294 Rab6b) was 13.75, the “Log2( Mean 'UV/ No UV')” value (P61620 Sec61a1) was 4.06 and the “TMT Ratio Mean 'UV/ No UV'” value (P61620 Sec61a1) was 16.63. The “Log2( Mean 'UV/ No UV')” value (P63011 Rab3a) was 3.83, the “TMT Ratio Mean 'UV/ No UV'” value (P63011 Rab3a) was 14.19 and the “Log2( Mean 'UV/ No UV')” value (P63037 Dnaja1) was 3.64. The “TMT Ratio Mean 'UV/ No UV'” value (P63037 Dnaja1) was 12.46, the “Log2( Mean 'UV/ No UV')” value (P63213 Gng2) was 3.65 and the “TMT Ratio Mean 'UV/ No UV'” value (P63213 Gng2) was 12.51. For the same molecule, the “Log2( Mean 'UV/ No UV')” value (Q5ICG5 Acsl6) was 3.88, the “TMT Ratio Mean 'UV/ No UV'” value (Q5ICG5 Acsl6) was 14.71 and the “Log2( Mean 'UV/ No UV')” value (Q5SW88 Rab1) was 3.58. For the same molecule, the “TMT Ratio Mean 'UV/ No UV'” value (Q5SW88 Rab1) was 11.95, the “Log2( Mean 'UV/ No UV')” value (Q8BXV2 Bri3bp) was 3.89 and the “TMT Ratio Mean 'UV/ No UV'” value (Q8BXV2 Bri3bp) was 14.84. The “Log2( Mean 'UV/ No UV')” value (Q8C3X2 Ccdc90b) was 4.00, the “TMT Ratio Mean 'UV/ No UV'” value (Q8C3X2 Ccdc90b) was 16.04 and the “Log2( Mean 'UV/ No UV')” value (Q8K4X7 Agpat4) was 4.25. For the same molecule, the “TMT Ratio Mean 'UV/ No UV'” value (Q8K4X7 Agpat4) was 18.96, the “Log2( Mean 'UV/ No UV')” value (Q8R5J9 Arl6ip5) was 4.56 and the “TMT Ratio Mean 'UV/ No UV'” value (Q8R5J9 Arl6ip5) was 23.65. The “Log2( Mean 'UV/ No UV')” value (Q9CXJ4 Abcb8) was 3.93, the “TMT Ratio Mean 'UV/ No UV'” value (Q9CXJ4 Abcb8) was 15.28 and the “Log2( Mean 'UV/ No UV')” value (Q9CZS1 Aldh1b1) was 4.40. For the same molecule, the “TMT Ratio Mean 'UV/ No UV'” value (Q9CZS1 Aldh1b1) was 21.11, the “Log2( Mean 'UV/ No UV')” value (Q9CZT8 Rab3b) was 3.73 and the “TMT Ratio Mean 'UV/ No UV'” value (Q9CZT8 Rab3b) was 13.26. For the same molecule, the “Log2( Mean 'UV/ No UV')” value (Q9D5T0 Atad1) was 3.65, the “TMT Ratio Mean 'UV/ No UV'” value (Q9D5T0 Atad1) was 12.57 and the “Log2( Mean 'UV/ No UV')” value (Q9EP69 Sacm1l) was 4.04. For the same molecule, the “TMT Ratio Mean 'UV/ No UV'” value (Q9EP69 Sacm1l) was 16.45, the “Log2( Mean 'UV/ No UV')” value (Q9ER00 Stx12) was 3.85 and the “TMT Ratio Mean 'UV/ No UV'” value (Q9ER00 Stx12) was 14.40. The “Log2( Mean 'UV/ No UV')” value (Q9Z2I0 Letm1) was 4.32, the “TMT Ratio Mean 'UV/ No UV'” value (Q9Z2I0 Letm1) was 19.93 and the “Log2( Mean 'UV/ No UV')” value (Q80ZW2 Them6) was 4.50. For the same molecule, the “TMT Ratio Mean 'UV/ No UV'” value (Q80ZW2 Them6) was 22.62, the “Log2( Mean 'UV/ No UV')” value (Q99JY8 Ppap2b) was 4.16 and the “TMT Ratio Mean 'UV/ No UV'” value (Q99JY8 Ppap2b) was 17.86. For the same molecule, the “Log2( Mean 'UV/ No UV')” value (Q00915 Rbp1) was 4.46, the “TMT Ratio Mean 'UV/ No UV'” value (Q00915 Rbp1) was 22.07 and the “Log2( Mean 'UV/ No UV')” value (Q60771 Cldn11) was 4.48. For the same molecule, the “TMT Ratio Mean 'UV/ No UV'” value (Q60771 Cldn11) was 22.33, the “Log2( Mean 'UV/ No UV')” value [1] was 3.89 and the “TMT Ratio Mean 'UV/ No UV'” value [1] was 14.80. The “Log2( Mean 'UV/ No UV')” value [2] was 3.55, the “TMT Ratio Mean 'UV/ No UV'” value [2] was 11.67 and the “Log2( Mean 'UV/ No UV')” value [3] was 3.94. For the same molecule, the “TMT Ratio Mean 'UV/ No UV'” value [3] was 15.34, the “Log2( Mean 'UV/ No UV')” value [4] was 4.02 and the “TMT Ratio Mean 'UV/ No UV'” value [4] was 16.25. For the same molecule, the “Log2( Mean 'UV/ No UV')” value [5] was 4.31, the “TMT Ratio Mean 'UV/ No UV'” value [5] was 19.87 and the “Log2( Mean 'UV/ No UV')” value [6] was 4.62. For the same molecule, the “TMT Ratio Mean 'UV/ No UV'” value [6] was 24.62, the “Log2( Mean 'UV/ No UV')” value [7] was 3.89 and the “TMT Ratio Mean 'UV/ No UV'” value [7] was 14.81. The “Log2( Mean 'UV/ No UV')” value [8] was 3.59, the “TMT Ratio Mean 'UV/ No UV'” value [8] was 12.05 and the “Log2( Mean 'UV/ No UV')” value [9] was 3.68. The “TMT Ratio Mean 'UV/ No UV'” value [9] was 12.78, the “Log2( Mean 'UV/ No UV')” value [10] was 4.27 and the “TMT Ratio Mean 'UV/ No UV'” value [10] was 19.35. The “Log2( Mean 'UV/ No UV')” value [11] was 3.50, the “TMT Ratio Mean 'UV/ No UV'” value [11] was 11.31 and the “Log2( Mean 'UV/ No UV')” value [12] was 4.57. For the same molecule, the “TMT Ratio Mean 'UV/ No UV'” value [12] was 23.78 and the “Log2( Mean 'UV/ No UV')” value (protein O35963 Ras-related protein Rab-33B (Rab33b)) was 4.02.
